The results in this text go back to patent US5618785A, “Peptide inhibitors of selectin binding” (Centocor, Inc., priority 1995, dated 1997).

Broadly, the IC50 is the point on the concentration scale where inhibition reaches its midpoint. A higher IC50 goes with weaker potency.

Residues, ends and D or L forms follow the SMILES beside them.

The experiment has as its system P-selectin. The experiment is described as follows: Inhibition of binding of human neutrophils to P-selectin (neutrophil adhesion to purified P-selectin immobilized on plastic wells). The format is cell-based. As to conditions: P-selectin isolated from human platelets, plated at 5 micrograms/mL, myeloperoxidase readout, peptides tested 1.0 mM to 0.001 mM. An excerpt:
Peptides can be screened for their ability to inhibit adhesion to cells, for example, neutrophil adhesion to purified P-selectin immobilized on plastic wells, using the assay described by Geng, et al., Nature 343, 757-760 (1990).
Human neutrophils are isolated from heparinized whole blood by density gradient centrifugation on Mono-Poly resolving media, Flow Laboratories. Neutrophil suspensions are greater than 98% pure and greater than 95% viable by trypan blue exclusion. For adhesion assays, neutrophils are suspended at a concentration of 2×10^6 cells/mL in Hanks' balanced salt solution containing 1.26 mM Ca^2+ and 0.81 mM Mg^2+ (HBSS, Gibco) with 0.05 mg/mL human serum albumin (HBSS/HSA). Adhesion assays are conducted in triplicate in 96-well microtiter plates, Corning, incubated at 4° C. overnight with 50 microliters of various protein solutions.
P-selectin is isolated from human platelet lysates by immunoaffinity chromatography on antibody S12-Sepharose™ and ion-exchange chromatography on a Mono-Q™ column (FLPC, Pharmacia Fine Chemicals), as follows.
Outdated human platelet packs (100 units) obtained from a blood bank and stored at 4° C. are pooled, adjusted to 5 mM EDTA at pH 7.5, centrifuged at 4,000 rpm for 30 minutes in 1 liter bottles, then washed three times with 1 liter of 0.1M NaCl, 20 mM Tris pH 7.5 (TBS), 5 mM EDTA, 5 mM benzamidine.
The pellets are then resuspended in a minimum amount of wash buffer and made 1 mM in DIFP, then frozen in 50 mL screwtop tubes at -80° C. The frozen platelets are thawed and resuspended in 50 mL TBS, 5 mM benzamidine, 5 mM EDTA pH 7.5, […]. The suspension is frozen and thawed two times in a dry ice-acetone bath using a 600 mL lyophilizing flask, then homogenized in a glass/teflon mortar and pestle and made 1 mM in DIFP. The NaCl concentration is adjusted to 0.5M with a stock solution of 4M NaCl. After stirring the suspension at 4° C., it is centrifuged in polycarbonate tubes at 33,000 rpm for 60 minutes at 4° C. The supernatant (0.5M NaCl wash) is removed and saved; this supernatant contains the soluble form of P-selectin. Care is taken not to remove the top part of the pellet with the supernatant. The pellets are then homogenized in extraction buffer (TBS, 5 mM benzamidine, 5 mM EDTA, pH 7.5, 100 μM leupeptin, 2% Triton X-100). After centrifugation at 19,500 rpm for 25 minutes at 4° C., the supernatant is removed. The extraction procedure is repeated with the pellet and the supernatant is combined with the first supernatant. The combined extracts, which contain the membrane form of P-selectin, are adjusted to 0.5M NaCl.
The soluble fraction (0.5M NaCl wash) and the membrane extract (also adjusted to 0.5M NaCl) are absorbed with separate pools of the monoclonal antibody S12 (directed to P-selectin) previously coupled to Affigel (Biorad) at 5 mg/mL for 2 hours at 4° C. After letting the resins settle, the supernatants are removed. The S12 Affigel containing bound GMP-140 is then loaded into a column and washed overnight at 4° C. with 400 mL of 0.5M NaCl, 20 mM Tris pH 7.5, 0.01% Lubrol PX.
Bound P-selectin is eluted from the S12 Affigel with 100 mL of 80% ethylene glycol, 1 mM MES pH 6.0, 0.01% Lubrol PX. Peak fractions with absorbance at 280 nm are pooled. Eluates are dialyzed against TBS with 0.05% Lubrol, then applied to a Mono Q column (FPLC from Pharmacia). The concentrated protein is step eluted with 2M NaCl, 20 mM Tris pH 7.5 (plus 0.05% Lubrol PX for the membrane fraction). Peak fractions are dialyzed into TBS pH 7.5 (plus 0.05% Lubrol PX for the membrane fraction).
P-selectin is plated at 5 micrograms/mL and the control proteins: human serum albumin (Alb), platelet glycoprotein IIb/IIIa (IIb), von Willebrand factor (vWF), fibrinogen (FIB), thrombomodulin (TM), gelatin (GEL) or human serum (HS), are added at 50 micrograms/mL. […]
For the molecule `CC[C@H](C)[C@H](NC(=O)[C@H](Cc1ccc(O)cc1)NC(=O)[C@@H](NC(=O)[C@H](CC(C)C)NC(=O)[C@H](Cc1c[nH]cn1)NC(=O)CNC(=O)[C@H](CCCNC(=N)N)NC(C)=O)C(C)C)C(=O)N[C@@H](CCC(N)=O)C(N)=O` [Ac--RGHLVYIQ--NH2, Acetyl-arginyl-glycyl-histidyl-leucyl-valyl-tyrosyl-isoleucyl-glutamine-amide] (Ac-RGHLVYIQ-NH2), the IC50 came to 428 µM. The figure for `CC[C@H](C)[C@H](NC(=O)[C@@H](CCc1ccccc1)NC(=O)[C@@H](NC(=O)[C@H](CC(C)C)NC(=O)[C@H](CCCCN)NC(=O)[C@@H](NC(=O)[C@H](Cc1ccc(O)cc1)NC(C)=O)[C@@H](C)O)C(C)C)C(=O)N[C@@H](CCC(N)=O)C(N)=O` [Ac--YTKLV--(D-homo-F)--IQ--NH2, Acetyl-tyrosyl-threonyl-lysyl-leucyl-valyl-(D-homo-phenylalanyl)-isoleucyl- glutamine-amide] (HELM PEPTIDE1{[ac].Y.T.K.L.V.[O=C([C@@H](CCc1ccccc1)N[*:1])[*:2]].I.Q.[am]}$$$$V2.0) is 26 µM; for `CC(=O)N[C@@H](Cc1ccc(O)cc1)C(=O)N[C@H](C(=O)N[C@@H](CCCCN)C(=O)N[C@@H](CC(C)C)C(=O)N[C@H](C(=O)N[C@@H](Cc1ccccc1)C(=O)N[C@@H](CCC(N)=O)C(=O)N[C@@H](CCC(N)=O)C(N)=O)C(C)C)[C@@H](C)O` [Ac--YTKLVFEQ--NH2, Acetyl-tyrosyl-threonyl-lysyl-leucyl-valyl-phenylalanyl-glutaminyl-glutamine-amide] (Ac-YTKLVFQQ-NH2) it is 99 µM.

In the case of `CC[C@H](C)[C@H](NC(=O)[C@H](Cc1ccccc1)NC(=O)[C@@H](NC(=O)[C@H](CC(C)C)NC(=O)[C@H](CCCCN)NC(=O)[C@@H](NC(=O)[C@H](Cc1ccc(O)cc1)NC(C)=O)[C@@H](C)O)C(C)C)C(=O)N[C@@H](CCC(N)=O)C(N)=O` [Ac--YTKLVFIQ--NH2, Acetyl-tyrosyl-threonyl-lysyl-leucyl-valyl-phenylalanyl-isoleucyl-glutamine-amide] (Ac-YTKLVFIQ-NH2), the IC50 amounted to 149 µM. This IC50 is about 1.5-fold higher than that of the molecule before.

In the case of `CC[C@H](C)[C@H](NC(=O)[C@H](Cc1c[nH]cn1)NC(=O)[C@@H](NC(=O)[C@H](CC(C)C)NC(=O)[C@H](CCCCN)NC(=O)[C@@H](NC(=O)[C@H](Cc1ccc(O)cc1)NC(C)=O)[C@@H](C)O)C(C)C)C(=O)N[C@@H](CCC(N)=O)C(N)=O` [Ac--YTKLVHIQ--NH2, Acetyl-tyrosyl-threonyl-lysyl-leucyl-valyl-histidyl-isoleucyl-glutamine-amide] (Ac-YTKLVHIQ-NH2), the IC50 was determined as 81 µM. On to `CC[C@H](C)[C@H](NC(=O)[C@H](C)NC(=O)[C@@H](NC(=O)[C@H](CCc1ccccc1)NC(=O)[C@H](CCCCN)NC(=O)[C@@H](NC(=O)[C@@H](N)Cc1ccc(O)cc1)[C@@H](C)O)C(C)C)C(=O)N[C@@H](CCC(N)=O)C(N)=O` [YTK--(homo-F)--VAIQ--NH2, Tyrosyl-threonyl-lysyl-(homo-phenylalanyl)-valyl-alanyl-isoleucyl-glutamine-amide] (HELM PEPTIDE1{Y.T.K.[O=C([C@H](CCc1ccccc1)N[*:1])[*:2]].V.A.I.Q.[am]}$$$$V2.0), for which the IC50 stood at 52 µM. In the case of `CC[C@H](C)[C@H](NC(=O)[C@H](C)NC(=O)[C@@H](NC(=O)[C@H](Cc1ccccc1)NC(=O)[C@H](CCCCN)NC(=O)[C@@H](NC(=O)[C@@H](N)Cc1ccc(O)cc1)[C@@H](C)O)C(C)C)C(=O)N[C@@H](CCC(N)=O)C(N)=O` [YTKFVAIQ--NH2, Tyrosyl-threonyl-lysyl-phenylalanyl-valyl-alanyl-isoleucyl-glutamine-amide] (H-YTKFVAIQ-NH2) it was 21 µM; in that of `CC[C@H](C)[C@H](NC(=O)[C@H](Cc1ccccc1)NC(=O)[C@@H](NC(=O)[C@H](CC(C)C)NC(=O)[C@H](CCCCN)NC(=O)[C@@H](NC(=O)[C@@H](N)Cc1ccc(O)cc1)[C@@H](C)O)C(C)C)C(=O)N[C@@H](CCC(N)=O)C(N)=O` [YTKLVFIQ--NH2, Tyrosyl-threonyl-lysyl-leucyl-valyl-phenylalanyl-isoleucyl-glutamine-amide] (H-YTKLVFIQ-NH2), 22 µM. The figure for `CC[C@H](C)[C@H](NC(=O)[C@H](C)NC(=O)[C@@H](NC(=O)[C@H](Cc1ccc(O)cc1)NC(=O)[C@H](CCCCN)NC(=O)[C@@H](NC(=O)[C@@H](N)Cc1ccc(O)cc1)[C@@H](C)O)C(C)C)C(=O)N[C@@H](CCC(N)=O)C(N)=O` [YTKYVAIQ--NH2, Tyrosyl-threonyl-lysyl-tyrosyl-valyl-alanyl-isoleucyl-glutamine-amide] (H-YTKYVAIQ-NH2) is 64 µM; for `CC[C@H](C)[C@H](NC(=O)[C@H](C)NC(=O)[C@@H](NC(=O)[C@H](Cc1ccccc1)NC(=O)[C@H](CCSC)NC(=O)[C@@H](NC(=O)[C@@H](N)Cc1ccc(O)cc1)[C@@H](C)O)C(C)C)C(=O)N[C@@H](CCC(N)=O)C(N)=O` [YTMFVAIQ--NH2, Tyrosyl-threonyl-methionyl-phenylalanyl-valyl-alanyl-isoleucyl-glutamine-amide] (H-YTMFVAIQ-NH2) it is 114 µM. `CSCC[C@H](NC(=O)[C@@H](NC(=O)[C@@H](N)Cc1ccc(O)cc1)[C@@H](C)O)C(=O)N[C@@H](CC(C)C)C(=O)N[C@H](C(=O)N[C@@H](C)C(=O)N[C@@H](Cc1ccccc1)C(=O)N[C@@H](CCC(N)=O)C(N)=O)C(C)C` [YTMLVAFQ--NH2, Tyrosyl-threonyl-methionyl-leucyl-valyl-alanyl-phenylalanyl-glutamine-amide] (H-YTMLVAFQ-NH2): the IC50 was 93 µM. For `CC[C@@H](C)[C@@H](NC(=O)[C@@H](Cc1ccccc1)NC(=O)[C@H](NC(=O)[C@@H](CC(C)C)NC(=O)[C@@H](Cc1c[nH]cn1)NC(=O)CNC(=O)[C@H](N)CCCNC(=N)N)C(C)C)C(=O)N[C@H](CCC(N)=O)C(N)=O` [rGhlvfiq--NH2, D-arginyl-glycyl-D-histidyl-D-leucyl-D-valyl-D-phenylalanyl-D-isoleucyl-D-glutamine-amide] (HELM PEPTIDE1{[dR].G.[dH].[dL].[dV].[dF].[dI].[dQ].[am]}$$$$V2.0), the IC50 was found to be 270 µM.
